Like-named read-outs stand apart in the source and are kept apart here.
How the values were obtained:
[1] = molecular target: T1, SARS-CoV-2 nsp3-mac1 (Severe acute respiratory syndrome coronavirus 2, UniProt P0DTD1); assay: biochemical; type: biochemical; conditions: SARS-CoV-2 nsp3 macrodomain TR-FRET single point
[2] = molecular target: T1, SARS-CoV-2 nsp3-mac1; assay: biochemical; set-up: SARS-CoV-2 nsp3 macrodomain TR-FRET single point, per cent inhibition, n=2
[3] = read-out: perc_inhibition_mean, batch_name=ASAP-0000339-001
[4] = read-out: perc_inhibition_mean, batch_name=ASAP-0000340-001
[5] = read-out: perc_inhibition_mean, batch_name=ASAP-0000341-001
[6] = read-out: perc_inhibition_mean, batch_name=ASAP-0000342-001
[7] = read-out: perc_inhibition_mean, batch_name=ASAP-0000343-001
[8] = read-out: perc_inhibition_mean, batch_name=ASAP-0000344-001
[9] = read-out: perc_inhibition_mean, batch_name=ASAP-0000345-001
[10] = read-out: perc_inhibition_mean, batch_name=ASAP-0000346-001
[11] = read-out: perc_inhibition_mean, batch_name=ASAP-0000347-001
[12] = read-out: perc_inhibition_mean, batch_name=ASAP-0000348-001
[13] = read-out: perc_inhibition_mean, batch_name=ASAP-0000349-001
[14] = read-out: perc_inhibition_mean, batch_name=ASAP-0000350-001
[15] = read-out: perc_inhibition_mean, batch_name=ASAP-0000351-001
[16] = read-out: perc_inhibition_mean, batch_name=ASAP-0000352-001
[17] = read-out: perc_inhibition_mean, batch_name=ASAP-0000353-001
[18] = read-out: perc_inhibition_mean, batch_name=ASAP-0000354-001
[19] = read-out: perc_inhibition_mean, batch_name=ASAP-0000355-001
[20] = read-out: perc_inhibition_mean, batch_name=ASAP-0000356-001
[21] = read-out: perc_inhibition_mean, batch_name=ASAP-0000357-001
[22] = read-out: perc_inhibition_mean, batch_name=ASAP-0000358-001
[23] = read-out: perc_inhibition_mean, batch_name=ASAP-0000359-001
[24] = read-out: perc_inhibition_mean, batch_name=ASAP-0000360-001
[25] = read-out: perc_inhibition_mean, batch_name=ASAP-0000361-001
[26] = read-out: perc_inhibition_mean, batch_name=ASAP-0000363-001
[27] = read-out: perc_inhibition_mean, batch_name=ASAP-0000364-001
[28] = read-out: perc_inhibition_mean, batch_name=ASAP-0000365-001
[29] = read-out: perc_inhibition_mean, batch_name=ASAP-0000366-001
[30] = read-out: perc_inhibition_mean, batch_name=ASAP-0000380-001
[31] = read-out: perc_inhibition_mean, batch_name=ASAP-0000381-001
[32] = read-out: perc_inhibition_mean, batch_name=ASAP-0000382-001
[33] = read-out: perc_inhibition_mean, batch_name=ASAP-0000383-001

Structure (SMILES) | perc_inhibition_mean ([1]; concentration 49.75 uM, n=2) | perc_inhibition_mean ([1]; concentration 99.5 uM, n=2) | perc_inhibition_mean ([1]; concentration 49.75 uM) | perc_inhibition_mean ([1]; concentration 99.5 uM) | other results
CN(Cc1cn(C)nn1)C(=O)c1ccc(NC(=O)Nc2ccccc2)cc1 [ASAP-0000339] | 0.883% | 0.566% | – | – | inhibition at 49.75 µM [2, 3]: 0.883%; inhibition at 99.5 µM [2, 3]: 0.566%
Cn1cc(Br)c(CNC(=O)c2ccc(NC(=O)Nc3ccccc3)cc2)n1 [ASAP-0000340] | 4.308% | 1.196% | – | – | inhibition at 49.75 µM [2, 4]: 4.31%; inhibition at 99.5 µM [2, 4]: 1.2%
O=C(NCc1cn[nH]c1)c1cnn2ccc(C3CCN(C(=O)c4ccccc4)CC3)cc12 [ASAP-0000341] | -2.366% | -4.505% | – | – | inhibition at 49.75 µM [2, 5]: -2.37%; inhibition at 99.5 µM [2, 5]: -4.5%
O=C(Nc1ccccc1)Nc1ccc(C(=O)Nc2cnnc(Cl)c2)cc1 [ASAP-0000342] | -1.718% | -0.19% | – | – | inhibition at 49.75 µM [2, 6]: -1.72%; inhibition at 99.5 µM [2, 6]: -0.19%
O=C1NC[C@@H](C(=O)N(CCC(=O)N2CCNCC2)Cc2cccc(Cl)c2)O1 [ASAP-0000343] | 0.125% | 5.241% | – | – | inhibition at 49.75 µM [2, 7]: 0.125%; inhibition at 99.5 µM [2, 7]: 5.24%
O=C(CCN(Cc1cccc(Cl)c1)C(=O)[C@H]1C[C@H](O)C1)N1CCNCC1 [ASAP-0000344] | -2.133% | -3.766% | – | – | inhibition at 49.75 µM [2, 8]: -2.13%; inhibition at 99.5 µM [2, 8]: -3.77%
O=C(c1cnc[nH]1)N1CCC(c2ccn3ncc(C(=O)N4CCCCC4)c3c2)CC1 [ASAP-0000345] | 20.282% | 35.337% | – | – | inhibition at 49.75 µM [2, 9]: 20.3%; inhibition at 99.5 µM [2, 9]: 35.3%
C[C@H](NC(=O)c1cnn2ccc(C3CCN(C(=O)c4ccccc4)CC3)cc12)c1cccnc1 [ASAP-0000346] | -1.839% | -6.209% | – | – | inhibition at 49.75 µM [2, 10]: -1.84%; inhibition at 99.5 µM [2, 10]: -6.21%
O=C(N[C@@H]1CCCNC1=O)c1cnn2ccc(C3CCN(C(=O)c4ccccc4)CC3)cc12 [ASAP-0000347] | -3.161% | -4.869% | – | – | inhibition at 49.75 µM [2, 11]: -3.16%; inhibition at 99.5 µM [2, 11]: -4.87%
O=C(NCc1c[nH]nn1)c1cnn2ccc(C3CCN(C(=O)c4ccccc4)CC3)cc12 [ASAP-0000348] | -2.856% | 2.165% | – | – | inhibition at 49.75 µM [2, 12]: -2.86%; inhibition at 99.5 µM [2, 12]: 2.17%
CN1CCC[C@@H]1CNC(=O)c1cnn2ccc(C3CCN(C(=O)c4ccccc4)CC3)cc12 [ASAP-0000349] | -4.432% | 1.495% | – | – | inhibition at 49.75 µM [2, 13]: -4.43%; inhibition at 99.5 µM [2, 13]: 1.5%
O=C(N[C@H]1CCC[C@H]1C(=O)O)c1cnn2ccc(C3CCN(C(=O)c4ccccc4)CC3)cc12 [ASAP-0000350] | 59.585% | 73.53% | – | – | inhibition at 49.75 µM [2, 14]: 59.6%; inhibition at 99.5 µM [2, 14]: 73.5%
Cc1cnc(C(=O)N(CCC(=O)N2CCNCC2)Cc2cccc(Cl)c2)nc1 [ASAP-0000351] | -1.487% | 6.47% | – | – | inhibition at 49.75 µM [2, 15]: -1.49%; inhibition at 99.5 µM [2, 15]: 6.47%
O=C(NCCn1cncn1)c1cnn2ccc(C3CCN(C(=O)c4ccccc4)CC3)cc12 [ASAP-0000352] | – | -2.566% | -3.7% | – | inhibition at 49.75 µM [2, 16]: -3.7%; inhibition at 99.5 µM [2, 16]: -2.57%
O=C(NC[C@@H]1CCCCN1)c1cnn2ccc(C3CCN(C(=O)c4ccccc4)CC3)cc12 [ASAP-0000353] | – | – | -5.92% | -2.573% | inhibition at 49.75 µM [2, 17]: -5.92%; inhibition at 99.5 µM [2, 17]: -2.57%
Cc1ccc(NC(=O)c2cnn3ccc(C4CCN(C(=O)c5ccccc5)CC4)cc23)cc1C(=O)O [ASAP-0000354] | – | – | -1.047% | -0.624% | inhibition at 49.75 µM [2, 18]: -1.05%; inhibition at 99.5 µM [2, 18]: -0.624%

Structure (SMILES) | perc_inhibition_mean ([1]; concentration 49.75 uM, n=2) | perc_inhibition_mean ([1]; concentration 99.5 uM, n=2) | perc_inhibition_mean ([1]; concentration 49.75 uM) | perc_inhibition_mean ([1]; concentration 99.5 uM) | other results
O=C(NCc1ncccn1)c1cnn2ccc(C3CCN(C(=O)c4ccccc4)CC3)cc12 [ASAP-0000355] | – | – | -0.074% | -6.657% | inhibition at 49.75 µM [2, 19]: -0.074%; inhibition at 99.5 µM [2, 19]: -6.66%
NC1(C(=O)N(CCC(=O)N2CCNCC2)Cc2cccc(Cl)c2)CC(F)(F)C1 [ASAP-0000356] | – | – | -3.48% | -1.174% | inhibition at 49.75 µM [2, 20]: -3.48%; inhibition at 99.5 µM [2, 20]: -1.17%
O=C1CCC[C@@H](C(=O)N(CCC(=O)N2CCNCC2)Cc2cccc(Cl)c2)N1 [ASAP-0000357] | – | – | 2.418% | -3.31% | inhibition at 49.75 µM [2, 21]: 2.42%; inhibition at 99.5 µM [2, 21]: -3.31%
Cc1ccc(C(=O)N2CCC(c3ccn4ncc(C(=O)N5CCCCC5)c4c3)CC2)c(=O)[nH]1 [ASAP-0000358] | – | – | 3.307% | 3.662% | inhibition at 49.75 µM [2, 22]: 3.31%; inhibition at 99.5 µM [2, 22]: 3.66%
O=C(Cc1ccns1)Nc1ncnc2[nH]cnc12 [ASAP-0000359] | – | – | -9.501% | -3.24% | inhibition at 49.75 µM [2, 23]: -9.5%; inhibition at 99.5 µM [2, 23]: -3.24%
O=C(O)c1ccsc1C(=O)N1CCC(c2ccn3ncc(C(=O)N4CCCCC4)c3c2)CC1 [ASAP-0000360] | – | – | 45.022% | 61.208% | inhibition at 49.75 µM [2, 24]: 45%; inhibition at 99.5 µM [2, 24]: 61.2%
CCN(Cc1nnc(C)o1)C(=O)c1cnn2ccc(C3CCN(C(=O)c4ccccc4)CC3)cc12 [ASAP-0000361] | – | – | 10.027% | -5.306% | inhibition at 49.75 µM [2, 25]: 10%; inhibition at 99.5 µM [2, 25]: -5.31%
Oc1ccccc1CNc1ncnc2cccnc12 [ASAP-0000363] | – | – | -1.837% | -0.535% | inhibition at 49.75 µM [2, 26]: -1.84%; inhibition at 99.5 µM [2, 26]: -0.535%
O=C(c1ccnnc1O)N1CCC(c2ccn3ncc(C(=O)N4CCCCC4)c3c2)CC1 [ASAP-0000364] | – | – | -7.591% | 10.21% | inhibition at 49.75 µM [2, 27]: -7.59%; inhibition at 99.5 µM [2, 27]: 10.2%
Cc1ccc2ccccc2c1-c1ncnc2[nH]ccc12 [ASAP-0000365] | – | – | -5.321% | -9.099% | inhibition at 49.75 µM [2, 28]: -5.32%; inhibition at 99.5 µM [2, 28]: -9.1%
COc1cc(CC(=O)Nc2cc3c(=O)nc[nH]c3cn2)on1 [ASAP-0000366] | – | – | -4.691% | -3.481% | inhibition at 49.75 µM [2, 29]: -4.69%; inhibition at 99.5 µM [2, 29]: -3.48%
Cn1cc([C@@H](Nc2ncnc3[nH]ccc23)c2ccccc2)cn1 [ASAP-0000380] | – | – | 19.983% | 39.262% | inhibition at 49.75 µM [2, 30]: 20%; inhibition at 99.5 µM [2, 30]: 39.3%
Cc1nn(C)c(C)c1[C@H]1COCCN1c1ncnc2[nH]ccc12 [ASAP-0000381] | – | – | -0.137% | -0.128% | inhibition at 49.75 µM [2, 31]: -0.137%; inhibition at 99.5 µM [2, 31]: -0.128%
O=C(c1cncc(O)n1)N1CCC(c2ccn3ncc(C(=O)N4CCCCC4)c3c2)CC1 [ASAP-0000382] | – | – | 26.617% | 41.906% | inhibition at 49.75 µM [2, 32]: 26.6%; inhibition at 99.5 µM [2, 32]: 41.9%
O=C(c1c[nH]c(=O)cn1)N1CCC(c2ccn3ncc(C(=O)N4CCCCC4)c3c2)CC1 [ASAP-0000383] | – | – | -49.044% | 45.826% | inhibition at 49.75 µM [2, 33]: -49%; inhibition at 99.5 µM [2, 33]: 45.8%

— doi:10.1101/2024.08.19.608619, “Discovery of potent SARS-CoV-2 nsp3 macrodomain inhibitors uncovers lack of translation to cellular antiviral response” (bioRxiv, 2024)
